Where “and” joins values, the source holds several entries; their conditions need not be identical. Identical values can stand only once.
How the values were obtained:
SMN2 mRNA = test: Splicing RT-qPCR gene panel, SMN2 canonical junction (CJ) mRNA; format: cell-based, human; conditions: Homo sapiens, Tables 4A/4B, read-out: SMN2 (IC50, decrease in CJ mRNA, gene panel)
How it was run: (§1)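 Canonical-junction mRNA levels were quantified by RT-qPCR in lysates, using ΔΔCt against a housekeeping gene (GAPDH, GUSB or PPIA) and DMSO wells, expressed as percentage response. Cells (A673 or K562) had been exposed for 24 h at 37° C. to 11 three-fold compound concentrations up to 10 uM, DMSO ≤0.25%.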

K562 cells = test: Cell Titer Glo 2.0 cell viability assay, K562; format: cell-based; conditions: Homo sapiens, 72 hours incubation
MYB = test: Protein abundance, HiBit-assay system (Promega), MYB; format: cell-based; conditions: Table 6; HiBiT-modified K562 cells, 24 hours
From the text: In some embodiments, a compound of Formula (I) or (II) or a pharmaceutically acceptable salt thereof, e.g., as described herein, modulates the expression of a target protein (e.g., HTT or MYB) in a reference cell or sample. In an embodiment, a compound of Formula (I) or (II) or a pharmaceutically acceptable salt thereof, e.g., as described herein, increases the expression of a target protein (e.g., HTT or MYB) in a reference cell or sample. In an embodiment, a compound of Formula (I) or (II) or a pharmaceutically acceptable salt thereof, e.g., as described herein, decreases the expression of a target protein (e.g., HTT or MYB) in a reference cell or sample. The effect of an exemplary compound of Formula (I) or (II) on protein abundance may be measured using a standard assay for measuring protein abundance, such as the HiBit-assay system (Promega). In this assay, percent response for each respective cell line may be as calculated at each compound concentration as follows: % response=100*(S−PC)/(NC−PC). For the normalized response at each concentration, a four-parameter logistical regression may be fit to the data and the response may be interpolated at the 50% value to determine a concentration for protein abundance at 50% (IC50) an untreated control. In an embodiment, a compound of Formula (I) or (II) or a pharmaceutically acceptable salt thereof, e.g., as described herein, has a protein abundance response less than 100 nM. In an embodiment, a compound of Formula (I) or (II) or a pharmaceutically acceptable salt thereof, e.g., as described herein, has a protein abundance response between 100-1000 nM. In an embodiment, a compound of Formula (I) or (II) or a pharmaceutically acceptable salt thereof, e.g., as described herein, has a protein abundance response greater than 1000 nM. In an embodiment, a compound of Formula (I) or (II) or a pharmaceutically acceptable salt thereof, e.g., as described herein, has a protein abundance response greater than 10 uM. In an embodiment, a compound of Formula (I) or (II) or a pharmaceutically acceptable salt thereof, e.g., as described herein, modulates the protein abundance of a target protein by about 1%, 5%, 10%, 15%, 20%, 25%, 30%, 35%, 40%, 45%, 50%, 55%, 60%, 65%, 70%, 75%, 80%, 85%, 90%, 95%, 99% or more, e.g., compared with a reference compound.

Target C mRNA = test: Splicing RT-qPCR gene panel, Target C canonical junction (CJ) mRNA; format: cell-based, human; conditions: Homo sapiens, Tables 4A/4B, read-out: Target C (IC50, decrease in CJ mRNA, gene panel)
How it was run: as §1

MYB mRNA = test: Splicing RT-qPCR assay, MYB canonical (CJ) and alternative (AJ) junction mRNA; format: cell-based, human; conditions: Homo sapiens, Tables 4A/4B; canonical junction qPCR panel; read-out: MYB (IC50, decrease in CJ mRNA, gene panel)
How it was run: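 One-step RT-qPCR on cell lysates, CJ and AJ isoforms quantified; housekeeping normalization GAPDH/GUSB (K562) or PPIA (A673). Cells: A673 in DMEM/10% FBS or K562 in IMDM/10% FBS. Compounds 11-pt 3-fold, top 10 uM, 24 h, 37 °C, 5% CO2.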

HTT mRNA = test: Splicing RT-qPCR gene panel, HTT canonical junction (CJ) mRNA; format: cell-based, human; conditions: Homo sapiens, Tables 4A/4B, read-out: HTT (IC50, decrease in CJ mRNA, gene panel)
How it was run: as §1

IC50 (SMN2 mRNA): < 0.1 µM
GI50 (K562 cells): 0.1 to 1 µM
IC50 (MYB): 0.1 to 1 µM and < 0.1 µM
IC50 (Target C mRNA): 1 to 10 µM
IC50 (MYB mRNA): 0.1 to 1 µM
IC50 (HTT mRNA): 0.1 to 1 µM
Structure (SMILES): Cc1cn2cc(NC(=O)c3ccc(C4CCNCC4)c4oc(C)nc34)cc(F)c2n1 [Compound 187]
